From the supplement of paper PMC8960247
Where a name gives a salt, the structure may show the parent alone. ± gives the standard error.

What was measured:
621-103 (TSC2-rescued) = test: relative viability vs DMSO; higher = less cytotoxic; conditions: serum: 10% FBS, 72 h
621-102 (TSC2-deficient) = test: as above; conditions: serum: 10% FBS, 72 h
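Also: immortalized renal angiomyolipoma cells stably carrying empty vector or TSC2, dosed in 384-well plates in DMEM, viability normalized to vehicle-treated wells within each plate.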

| Structure (SMILES) | relative viability (621-103 (TSC2-rescued); 0.0001 µM) [%] | relative viability (621-103 (TSC2-rescued); 0.001 µM) [%] | relative viability (621-103 (TSC2-rescued); 0.01 µM) [%] | relative viability (621-103 (TSC2-rescued); 0.1 µM) [%] | relative viability (621-103 (TSC2-rescued); 1 µM) [%] | relative viability (621-103 (TSC2-rescued); 10 µM) [%] | relative viability (621-102 (TSC2-deficient); 0.0001 µM) [%] | relative viability (621-102 (TSC2-deficient); 0.001 µM) [%] | relative viability (621-102 (TSC2-deficient); 0.01 µM) [%] | relative viability (621-102 (TSC2-deficient); 0.1 µM) [%] | relative viability (621-102 (TSC2-deficient); 1 µM) [%] | relative viability (621-102 (TSC2-deficient); 10 µM) [%] |
| --- | --- | --- | --- | --- | --- | --- | --- | --- | --- | --- | --- | --- |
| COc1cc2nc(N3CCN(C(=O)C4COc5ccccc5O4)CC3)nc(N)c2cc1OC (centres undefined) [Doxazosin mesylate] | 98.4 ± 1.8 | 95.8 ± 1.5 | 108 ± 2.6 | 101 ± 3.2 | 100.5 ± 0.52 | 88.314 ± 0.032 | 101 ± 0.75 | 99.06 ± 0.17 | 102.2 ± 0.51 | 100 ± 2.2 | 99.87 ± 0.89 | 95.9 ± 2.9 |
| CN(C)CC/C=C1/c2ccccc2Sc2ccc(Cl)cc21 [Chlorprothixene] | 103 ± 2.4 | 106 ± 5.4 | 102.3 ± 0.14 | 108 ± 2.9 | 108.9 ± 0.97 | 89.1 ± 2 | 93.1 ± 1.6 | 102 ± 5.2 | 102 ± 4.3 | 102.9 ± 0.47 | 108 ± 4 | 100.8 ± 0.6 |
| CCOc1ccccc1OCCN[C@H](C)Cc1ccc(OC)c(S(N)(=O)=O)c1 [Tamsulosin HCl] | 107 ± 5.6 | 104 ± 4.7 | 105 ± 2 | 103 ± 2.4 | 96.4 ± 7 | 98.4 ± 2.6 | 104 ± 3.8 | 99.7 ± 2.3 | 99.5 ± 2.2 | 102 ± 5 | 97 ± 3.9 | 98.4 ± 4 |
| CO[C@H]1/C=C\C=C(/C)C(=O)NC2=CC(=O)C(NCCN(C)C)=C(C[C@@H](C)C[C@H](OC)[C@H](O)[C@@H](C)/C=C(\C)[C@@H]1OC(N)=O)C2=O [17-DMAG] | 90.6 ± 3 | 41 ± 1.2 | 5.591 ± 0.017 | 5.287 ± 0.051 | 6.16 ± 0.36 | 3.07 ± 0.31 | 76.2 ± 3.6 | 58 ± 3.6 | 28.6 ± 0.72 | 21.7 ± 0.8 | 26.3 ± 0.3 | 16.31 ± 0.12 |
| CC(=O)Nc1ccccc1 [Acetanilide] | 104 ± 1.9 | 102 ± 4.6 | 106.2 ± 0.32 | 101 ± 4.2 | 103 ± 2.6 | 91.3 ± 1.3 | 87.9 ± 1.9 | 111 ± 0.29 | 109 ± 2.3 | 92 ± 3 | 113 ± 3.1 | 104 ± 1.7 |
| CC(C)(C)NC(=O)[C@H]1CC[C@H]2[C@@H]3CC[C@H]4NC(=O)C=C[C@]4(C)[C@H]3CC[C@]12C [Finasteride] | 102.7 ± 0.88 | 101 ± 1.6 | 102.1 ± 0.43 | 101.2 ± 0.15 | 101.2 ± 0.59 | 99.6 ± 0.87 | 112 ± 1.9 | 114 ± 4 | 106 ± 2 | 99.13 ± 0.73 | 92.7 ± 2 | 92.5 ± 2.9 |
| O=C(CCCCCCC(=O)Nc1ccccc1)NO [Vorinostat] | 101 ± 2.2 | 98.74 ± 0.07 | 98.14 ± 0.97 | 97.94 ± 0.86 | 97.19 ± 0.86 | 26.6 ± 0.47 | 117 ± 3.2 | 120 ± 2.4 | 114 ± 2.5 | 106 ± 1.3 | 91.54 ± 0.85 | 63.7 ± 1.4 |
